We go through 1 compound from patent publication US20220112199A1, “EGFR INHIBITOR FOR MEDICAL USE” (Hoffmann-La Roche Inc., priority 2019, published 2022).

pIC50: −log10 of the molar value.

The test deals with T1, EGFR TMLRCS (T790M/L858R/C797S) in BaF3-TMLRCS cell line (Homo sapiens, UniProt P00533, C797S/L858R/T790M).
T1 construct: host or cells: BaF3 (BaF3-TMLRCS cell line)
The experiment in a line: HTRF Phospho EGFR TMLRCS Assay (Cellular). Format: cell-based. Particulars: BaF3-TMLRCS cells, 4 hours incubation. As to the method: HTRF Phospho EGFR TMLRCS Assay (Cellular)
BaF3-TMLRCS cell line were obtained from Crownbio (San Diego, Calif., USA). Cells were maintained at 37° C., 5% CO2 in RPMI ATCC (Gibco 31870)+2 mM Glutamine+0.5 μg/ml Puromycin supplemented with 10% fetal bovine serum (FBS) (Gibco).
Cells are transferred as above to Greiner Bio-One, Nr. 784-08 micro-titerplate at 20000 cells/well in 12.5 μl of growth medium/well after the plates had been pre-filled with 12.5 nl of DMSO solutions of the to be tested compounds (in dose response) or DMSO only. After spinning the plates at 300 ×g for 30 seconds the cells were incubated for 4 hours at 37 C, 5% CO2, 95% humidity. The cells were lysed by adding to the compound mix 4 μl/well of the supplemented lysis buffer (Cis-bio, Phospho-EGFR HTRF kit, 64EG1PEH), followed by incubation for 30 min at room temperature with shaking (400 rpm). The plates were then frozen and stored overnight at −80 C. […] The lidded plates were then incubated for 4 h at room temperature before reading the fluorescence emission at 616 and 665 nm using an Envision reader (Perkin Elmer). Data was analyzed in similar fashion as above using the normalized ratio of the 665 to 616 signals multiplied by 10000.

T1 sequence (P00533 25-1210 T790M/C797S/L858R): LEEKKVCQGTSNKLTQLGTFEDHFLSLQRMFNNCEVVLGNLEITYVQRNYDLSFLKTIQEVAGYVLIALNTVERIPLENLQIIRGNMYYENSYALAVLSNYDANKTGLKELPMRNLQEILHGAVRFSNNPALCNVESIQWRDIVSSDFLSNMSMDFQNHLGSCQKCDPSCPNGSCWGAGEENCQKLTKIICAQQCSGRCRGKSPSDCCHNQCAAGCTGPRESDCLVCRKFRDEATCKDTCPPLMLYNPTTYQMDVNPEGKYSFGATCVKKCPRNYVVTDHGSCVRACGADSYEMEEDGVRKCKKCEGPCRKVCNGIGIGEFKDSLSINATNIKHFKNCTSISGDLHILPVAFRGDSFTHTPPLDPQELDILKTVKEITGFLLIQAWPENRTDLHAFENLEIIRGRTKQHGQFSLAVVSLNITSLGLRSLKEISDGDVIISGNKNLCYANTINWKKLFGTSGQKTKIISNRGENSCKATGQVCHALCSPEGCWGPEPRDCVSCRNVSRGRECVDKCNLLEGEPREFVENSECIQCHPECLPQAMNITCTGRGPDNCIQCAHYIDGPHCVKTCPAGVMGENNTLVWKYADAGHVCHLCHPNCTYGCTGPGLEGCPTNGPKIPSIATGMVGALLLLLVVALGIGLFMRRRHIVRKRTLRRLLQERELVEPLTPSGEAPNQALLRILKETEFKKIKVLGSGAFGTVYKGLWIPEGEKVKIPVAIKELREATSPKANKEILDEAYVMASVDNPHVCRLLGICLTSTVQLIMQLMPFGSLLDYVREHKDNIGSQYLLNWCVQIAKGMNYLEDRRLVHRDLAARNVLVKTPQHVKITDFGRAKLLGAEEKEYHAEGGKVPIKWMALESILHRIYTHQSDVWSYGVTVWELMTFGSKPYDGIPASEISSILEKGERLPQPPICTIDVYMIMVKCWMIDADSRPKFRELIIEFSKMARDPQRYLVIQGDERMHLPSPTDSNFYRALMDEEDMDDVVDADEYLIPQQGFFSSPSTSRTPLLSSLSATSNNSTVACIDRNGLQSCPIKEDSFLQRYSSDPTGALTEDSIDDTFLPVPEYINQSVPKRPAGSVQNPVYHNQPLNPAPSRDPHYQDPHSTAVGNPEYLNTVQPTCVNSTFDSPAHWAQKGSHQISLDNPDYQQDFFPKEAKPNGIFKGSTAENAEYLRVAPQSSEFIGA

Compound `O=C(Nc1nccs1)C(c1ncn2c1CCC2)N1Cc2c(cc(C#Cc3ccc(CN4CCC(O)CC4)cc3)cc2C(F)(F)F)C1=O` (racemic) [Example 1, (2RS)-2-(6,7-Dihydro-5H-pyrrolo[1,2-c]imidazol-1-yl)-2-[6-[2-[4-[(4-hydroxy-1-piperidyl)methyl]phenyl]ethynyl]-1-oxo-4-(trifluoromethyl)isoindolin-2-yl]-N-thiazol-2-yl-acetamide] showed a negative logarithm of the IC50 (pIC50) of 7.85.

Broadly, the pIC50 is −log10 of the IC50, conventionally taken in molar units.
